From US6989399B2, “Antiamyloid phenylsulfonamides: N-alkanol derivatives” (Bristol-Myers Squibb Company, priority 2002, dated 2006) come the findings set out here.

For orientation: IC50 means the midpoint of a concentration-inhibition curve.

The test concerns the target T1, γ-secretase (Homo sapiens, UniProt P49768).
T1 construct: The endogenous γ-secretase present in the isolated membranes; endogenous in cells; host or cells: isolated membrane fraction of human-derived cell lines such as HeLa and H4, stably transfected with β-APP substrate
Nature of the test: Isolated membrane γ-secretase assay, time-resolved fluorescence detection of Aβ. The class given is biochemical. Particulars: isolated membranes, about 90 minutes at 37 degrees C; read-out: Activity (IC50), Inhibition of β-Amyloid Peptide. From the text:
The detection of γ-secretase activity requires assays capable of reliable, accurate and expedient detection of γ-secretase cleavage products, particularly Aβ. An isolated membrane fraction that contains functionally active γ-secretase and β-APP substrates can generate γ-secretase cleavage products including Aβ (Roberts et al., WO 01/75435; Fechteler et al., Patent Application No. DE 99-19941039 19990828; Shearman et al., Biochemistry, 39, p. 8698–8704 (2000); Zhang et al., Biochemistry, 40, p. 5049-5055 (2001)). An isolated membrane fraction can be prepared from human derived cell lines such as HeLa and H4 which have been transfected with wild type or mutant forms of β-APP or a human alkaline phosphatase β-APP fusion construct, and stably express high levels of γ-secretase substrates. The endogenous γ-secretase present in the isolated membranes prepared at 0–4 degrees C. cleaves the β-APP substrates when the membranes are shifted from 0–4 to 37 degrees C. […] 325–327 (1992), or by a preferred method using time-resolved fluorescence of the homogeneous sample containing membranes and Aβ (Roberts et al., WO 01/75435; Shearman et al., Biochemistry, 39, p. 8698–8704 (2000)). The Aβ present in a homogeneous sample containing membranes can be detected by time-resolved fluorescence with two antibodies that recognize different epitopes of Aβ. One of the antibodies recognizes an epitope that is present in Aβ but not present in the precursor fragments; preferably the antibody binds the carboxyl terminus of Aβ generated by the γ-secretase cleavage. The second antibody binds to any other epitope present on Aβ. For example, antibodies that bind the N-terminal region (e.g., 26D6-B2-B3® SIBIA Neurosciences, La Jolla, Calif.) or bind the C-terminal end (e.g., 9S3.2® antibody, Biosolutions, Newark, Del.) of the Aβ peptide are known. The antibodies are labeled with a pair of fluorescent adducts that transfer fluorescent energy when the adducts are brought in close proximity as a result of binding to the N- and C-terminal ends or regions of Aβ. A lack of fluorescence is indicative of the absence of cleavage products, resulting from inhibition of γ-secretase. The isolated membrane assay can be used to identify candidate agents that inhibit the activity of γ-secretase cleavage and Aβ production.
A typical membrane-based assay requires 45 μg membrane protein per well in a 96- or 384-well format. Membranes in a neutral buffer are combined with the test compound and shifted from 0–4 to 37 degrees C. Test agents may typically consist of synthetic compounds, secondary metabolites from bacterial or fungal fermentation extracts, or extracts from plant or marine samples. All synthetic agents are initially screened at doses ranging from 10–100 μM or in the case of extracts at sufficient dilution to minimize cytotoxicity. Incubation of the membranes with the test agent will continue for approximately 90 minutes at which time fluorescence labeled antibodies are added to each well for Aβ quantitation. The time-resolved fluorescence detection and quantitation of Aβ is described elsewhere (Roberts et al., WO 01/75435; Shearman et al., Biochemistry, 39, p. 8698–8704 (2000)). Results are obtained by analysis of the plate in a fluorescence plate reader and comparison to the mock treated membranes and samples in which known amounts of Aβ were added to construct a standard concentration curve. A positive acting compound is one that inhibits the Aβ relative to the control sample by at least 50% at the initial tested concentration. If a compound is found to be active then a dose response experiment is performed to determine the lowest dose of compound necessary to elicit the inhibition of the production of Aβ.
The Formula I compounds were tested in the assay described above and found to be active as inhibitors of γ-secretase. […]
On to `CC(O)C[C@@H](C)N(c1cc(Cl)ccc1Cl)S(=O)(=O)c1ccc(Cl)cc1` (mixture of isomers) [Example 7], for which the IC50 lay in the range of 50 to 200 nM. In the case of `CC(C)C(O)[C@@H](C)N(c1cc(Cl)ccc1Cl)S(=O)(=O)c1ccc(Cl)cc1` (mixture of isomers) [Example 10], the IC50 was in the range of 200 to 5000 nM. In the case of `CC(C)CC(O)[C@@H](C)N(c1cc(Cl)ccc1Cl)S(=O)(=O)c1ccc(Cl)cc1` (mixture of isomers) [Example 11] it was 200 to 5000 nM; in that of `C[C@H](C(O)C1CCCC1)N(c1cc(Cl)ccc1Cl)S(=O)(=O)c1ccc(Cl)cc1` (mixture of isomers) [Example 12], 200 to 5000 nM.

As for `C[C@H](C(O)C1CCCCC1)N(c1cc(Cl)ccc1Cl)S(=O)(=O)c1ccc(Cl)cc1` (mixture of isomers) [Example 13], the IC50 is 200 to 5000 nM. In the case of `C[C@H](C(O)c1ccccc1)N(c1cc(Cl)ccc1Cl)S(=O)(=O)c1ccc(Cl)cc1` (mixture of isomers) [Example 14] it was 200 to 5000 nM; in that of `COc1ccc(C(O)[C@@H](C)N(c2cc(Cl)ccc2F)S(=O)(=O)c2ccc(Cl)cc2)cc1` (mixture of isomers) [Example 22], 200 to 5000 nM. As for `C[C@H](C(O)CC(=O)O)N(c1cc(Cl)ccc1F)S(=O)(=O)c1ccc(Cl)cc1` (mixture of isomers) [Example 24], the IC50 was in the range of 50 to 200 nM. In the case of `CC(C)CC(O)C[C@@H](C)N(c1cc(Cl)ccc1Cl)S(=O)(=O)c1ccc(Cl)cc1` (mixture of isomers) [Example 28] it was 50 to 200 nM.

In the case of `C=CCCC(O)C[C@@H](C)N(c1cc(Cl)ccc1Cl)S(=O)(=O)c1ccc(Cl)cc1` (mixture of isomers) [Example 29], the concentration for half-maximal inhibition (IC50) was in the range of 50 to 200 nM. In the case of `C[C@H](CC(O)c1ccccc1)N(c1cc(Cl)ccc1Cl)S(=O)(=O)c1ccc(Cl)cc1` (mixture of isomers) [Example 30] it was 50 to 200 nM. In the case of `C=CCC(O)[C@@H](C)N(c1cc(Cl)ccc1Cl)S(=O)(=O)c1ccc(Cl)cc1` (single isomer, unassigned) [Example 5A], the IC50 lay in the range of 50 to 200 nM. In the case of `C=CCC(O)[C@@H](C)N(c1cc(Cl)ccc1Cl)S(=O)(=O)c1ccc(Cl)cc1` (single isomer, unassigned) [Example 5B], the IC50 was 200 to 5000 nM. In the case of `CCCC(O)[C@@H](C)N(c1cc(Cl)ccc1Cl)S(=O)(=O)c1ccc(Cl)cc1` (single isomer, unassigned) [Example 6A] it was 50 to 200 nM; in that of `CCCC(O)[C@@H](C)N(c1cc(Cl)ccc1Cl)S(=O)(=O)c1ccc(Cl)cc1` (single isomer, unassigned) [Example 6B], 200 to 5000 nM; in that of `CCCC(=O)OC(CCC)[C@@H](C)N(c1cc(Cl)ccc1F)S(=O)(=O)c1ccc(Cl)cc1` (single isomer, unassigned) [Example 8], 50 to 200 nM. In the case of `CC(O)C(C)N(c1cc(Cl)ccc1Cl)S(=O)(=O)c1ccc(Cl)cc1` (single isomer, unassigned) [Example 9A] it was 50 to 200 nM; in that of `Cc1cc(C)c(C(O)[C@@H](C)N(c2cc(Cl)ccc2Cl)S(=O)(=O)c2ccc(Cl)cc2)c(C)c1` (single isomer, unassigned) [Example 16A], 200 to 5000 nM; in that of `CC(C(O)CCc1ccccc1)N(c1cc(Cl)ccc1Cl)S(=O)(=O)c1ccc(Cl)cc1` (single isomer, unassigned) [Example 17A], 200 to 5000 nM. Regarding `CC(C(O)CCc1ccccc1)N(c1cc(Cl)ccc1Cl)S(=O)(=O)c1ccc(Cl)cc1` (single isomer, unassigned) [Example 17B], the IC50 was 200 to 5000 nM.

Take `C=CCCC(O)C(C)N(c1cc(Cl)ccc1Cl)S(=O)(=O)c1ccc(Cl)cc1` (single isomer, unassigned) [Example 18A]: the IC50 lay in the range of 50 to 200 nM. In the case of `C=CCCC(O)C(C)N(c1cc(Cl)ccc1Cl)S(=O)(=O)c1ccc(Cl)cc1` (single isomer, unassigned) [Example 18B] it was 200 to 5000 nM; in that of `CC(O)C(C)N(c1cc(Cl)ccc1F)S(=O)(=O)c1ccc(Cl)cc1` (single isomer, unassigned) [Example 19A], 50 to 200 nM; in that of `C=CCCC(O)C(C)N(c1cc(Cl)ccc1F)S(=O)(=O)c1ccc(Cl)cc1` (single isomer, unassigned) [Example 20A], 50 to 200 nM. In the case of `C=CCCC(O)C(C)N(c1cc(Cl)ccc1F)S(=O)(=O)c1ccc(Cl)cc1` (single isomer, unassigned) [Example 20B] it was 200 to 5000 nM.

On to `C#CCC(O)[C@@H](C)N(c1cc(Cl)ccc1F)S(=O)(=O)c1ccc(Cl)cc1` (single isomer, unassigned) [Example 21A], for which the IC50 is less than 50 nM. In the case of `C#CCC(O)[C@@H](C)N(c1cc(Cl)ccc1F)S(=O)(=O)c1ccc(Cl)cc1` (single isomer, unassigned) [Example 21B] it was less than 50 nM. In the case of `C=CCC(O)[C@@H](C)N(c1cc(Cl)ccc1F)S(=O)(=O)c1ccc(Cl)cc1` (single isomer, unassigned) [Example 23A] it was less than 50 nM; in that of `CCCC(O)[C@@H](C)N(c1cc(Cl)ccc1F)S(=O)(=O)c1ccc(Cl)cc1` (single isomer, unassigned) [Example 27A], less than 50 nM.
